Laboratory results from patent publication US7425433B2, “Carboxylic acid reductase polypeptide, nucleotide sequence encoding same and methods of use” (priority 2003, dated 2008).
Read-outs that look alike come from different tables or passages of the source.

B1: HAT-CAR: HAT-tagged recombinant Nocardia carboxylic acid reductase fusion protein expressed in E. coli from pHAT-305 (protein)
chain: AVDSPDERLQRRIAQLFAEDEQVKAARPLEAVSAAVSAPGMRLAQIAATVMAGYADRPAAGQRAFELNTDDATGRTSLRLLPRFETITYRELWQRVGEVAAAWHHDPENPLRAGDFVALLGFTSIDYATLDLADIHLGAVTVPLQASAAVSQLIAILTETSPRLLASTPEHLDAAVECLLAGTTPERLVVFDYHPEDDDQRAAFESARRRLADAGSSVIVETLDAVRARGRDLPAAPLFVPDTDDDPLALLIYTSGSTGTPKGAMYTNRLAATMWQGNSMLQGNSQRVGINLNYMPMSHIAGRISLFGVLARGGTAYFAAKSDMSTLFEDIGLVRPTEIFFVPRVCDMVFQRYQSELDRRSVAGADLDTLDREVKADLRQNYLGGRFLVAVVGSAPLAAEMKTFMESVLDLPLHDGYGSTEAGASVLLDNQIQRPPVLDYKLVDVPELGYFRTDRPHPRGELLLKAETTIPGYYKRPEVTAEIFDEDGFYKTGDIVAELEHDRLVYVDRRNNVLKLSQGEFVTVAHLEAVFASSPLIRQIFIYGSSERSYLLAVIVPTDDALRGRDTATLKSALAESIQRIAKDANLQPYEIPRDFLIETEPFTIANGLLSGIAKLLRPNLKERYGAQLEQMYTDLATGQADELLALRREAADLPVLETVSRAAKAMLGVASADMRPDAHFTDLGGDSLSALSFSNLLHEIFGVEVPVGVVVSPANELRDLANYIEAERNSGAKRPTFTSVHGGGSEIRAADLTLDKFIDARTLAAADSIPHAPVPAQTVLLTGANGYLGRFLCLEWLERLDKTGGTLICVVRGSDAAAARKRLDSAFDSGDPGLLEHYQQLAARTLEVLAGDIGDPNLGLDDATWQRLAETVDLIVHPAALVNHVLPYTQLFGPNVVGTAEIVRLAITARRKPVTYLSTVGVADQVDPAEYQEDSDVREMSAVRVVRESYANGYGNSKWAGEVLLREAHDLCGLPVAVFRSDMILAHSRYAGQLNVQDVFTRLILSLVATGIAPYSFYRTDADGNRQRAHYDGLPADFTAAAITALGIQATEGFRTYDVLNPYDDGISLDEFVDWLVESGHPIQRITDYSDWFHRFETAIRALPEKQRQASVLPLLDAYRNPCPAVRGAILPAKEFQAAVQTAKIGPEQDIPHLSAPLIDKYVSDLELLQLL
modifications: left off: small tags and cut ends

Columns and labels:
[1] = biological target: T1, carboxylic acid reductase (CAR) (Nocardia iowensis, UniProt Q6RKB1, L218S); type: biochemical, Nocardia sp. NRRL 5646; details: for Km: cofactors of purified HAT-CAR, Cleland's kinetics program; for Specific activity: 25° C.
T1 construct: made in house; host or cells: E. coli BL21-CodonPlus(DE3)-RP carrying pHAT-305
Experimental: Enzyme assay. The standard reaction mixture contained 1 mM ATP, 0.15 mM NADPH, 5 mM sodium benzoate, 10 mM MgCl2 and enzyme in 0.05 M Tris buffer (pH 7.5) containing 1 mM EDTA, 1 mM DTT and 10% glycerol (vol/vol), in a final volume of 1.4 ml. The reference cuvette contained all components except benzoate. Reactions were initiated by adding enzyme, and were monitored by recording the absorption decrease at 340 nm at 25° C. with a Shimadzu UV-2010PC scanning spectrophotometer. One unit of the enzyme was defined as the amount of enzyme that catalyzed the reduction of 1 µmol of benzoate to benzaldehyde.min^−1 under standard assay condition. Protein concentrations were measured by the Bradford protein microassay (4) with bovine serum albumin as the standard.

[2] = system: E. coli BL21-CodonPlus(DE3)-RP carrying pHAT-305; test: In vivo whole cell reactions; type: cell-based; details: IPTG-induced cultures, 1 mg/ml substrate acid
Experimental: In vivo whole cell reactions were typically conducted with 100 ml cultures of E. coli BL21-CodonPlus®(DE3)-RP carrying pHAT-305. Cultures were induced by 1 mM IPTG for 4 hrs before receiving 1 mg/ml of benzoic acid, vanillic acid, or ferulic acid.
Samples of approximately 2 mL were removed at various time intervals, sample pH was adjusted to pH 2.0 with 6N HCl, and samples were extracted with 1 ml ethyl acetate, and centrifuged for 2 min at 1,000×g. Organic phases were removed and used to spot silica gel GF254 TLC plates for analysis, and comparison with authentic standards of benzaldehyde, vanillin and coniferaldehyde. For metabolite isolation, reactions were stopped by adjustment of mixtures to pH 2.0 with 6N HCl, and extracted three times with half-volumes of ethyl acetate. After removal of solvent by rotary evaporation, reduction products were purified by preparative TLC for analysis and comparison with authentic standards.

Molecule | Km [1] [µM] | in vivo transformation by whole cells [2] | further results
Nc1ncnc2c1ncn2[C@@H]1O[C@H](COP(=O)(O)OP(=O)(O)OP(=O)(O)O)[C@@H](O)[C@H]1O [ATP] | 69 ± 6.6 | – | –
NC(=O)C1=CN([C@@H]2O[C@H](COP(=O)(O)OP(=O)(O)OC[C@H]3O[C@@H](n4cnc5c(N)ncnc54)[C@H](OP(=O)(O)O)[C@@H]3O)[C@@H](O)[C@H]2O)C=CC1 [NADPH] | 57 ± 3.6 | – | –
O=C(O)c1ccccc1 [benzoate, benzoic acid] | – | quickly converted to benzyl alcohol | –
COc1cc(/C=C/C=O)ccc1O [coniferyl aldehyde] | – | converted to their corresponding alcohols | –
COc1cc(C=O)ccc1O [vanillin] | – | converted to their corresponding alcohols | –
B1 | – | – | Specific activity ([1]; purification step: Crude extract): 0.009 U/mg; Specific activity ([1]; purification step: DEAE Sepharose): 0.09 U/mg; Specific activity ([1]; purification step: Talon Matrix): 0.066 U/mg; specific CAR activity ([1]; purified HAT-CAR): 0.11 μmol.min^−1.mg-^−1 protein; Vmax ([1]; purified recombinant HAT-CAR): 0.135±0.004 μmol.min^−1.mg^−1 protein
